≈ marks a conversion by molar mass, not a printed value.
Biological target: FtsZ (Escherichia coli, UniProt P0A9A6)
Experiment: STD NMR and STD NMR competition with GTPγS
Format: biochemical

Sequence of FtsZ (P0A9A6 whole entry): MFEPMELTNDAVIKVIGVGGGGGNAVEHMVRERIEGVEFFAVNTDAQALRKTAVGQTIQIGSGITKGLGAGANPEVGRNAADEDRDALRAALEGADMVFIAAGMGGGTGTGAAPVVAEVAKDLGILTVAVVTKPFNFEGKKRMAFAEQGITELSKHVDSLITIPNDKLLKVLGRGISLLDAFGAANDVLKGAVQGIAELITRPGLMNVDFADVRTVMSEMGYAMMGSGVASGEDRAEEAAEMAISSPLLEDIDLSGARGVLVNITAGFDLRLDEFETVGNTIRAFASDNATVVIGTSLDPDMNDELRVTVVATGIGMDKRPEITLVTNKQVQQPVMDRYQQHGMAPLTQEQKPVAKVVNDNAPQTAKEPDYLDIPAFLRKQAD

## Oc1cc(O)c2c(c1)C/C(Cl)=C\Cc1cc(c(Cl)cc1O)Oc1c(O)cc(cc1O)C/C(Cl)=C\Cc1cc(c(Cl)cc1O)O2 [compound 1, chrysophaentin A]
  IC50: 6.7 ± 1.7 µg/mL (≈ 9.88 µM)

Reference: paper PMC2920594 (Journal of the American Chemical Society, 2010)
